Experimental data taken from ChEMBL document CHEMBL3797190, “Development of 3,5-Dinitrobenzylsulfanyl-1,3,4-oxadiazoles and Thiadiazoles as Selective Antitubercular Agents Active Against Replicating and Nonreplicating Mycobacterium tuberculosis” (J Med Chem, 2016).
In brackets after ≈: the same amount, converted by molar mass.

Experiments:
[1] = tested on: Mycobacterium tuberculosis; assay: Antimycobacterial activity against Mycobacterium tuberculosis CNCTC My 331/88 after 14 days by microdilution method; assay type: functional; details: CNCTC My 331/88, 336 h
[2] = Cytotoxicity against human HuH7 cells assessed as cell viability at 20 uM after 24 hrs by MTS assay; assay type: cell-based, Huh-7; details: read-out: Activity
Mycobacterium kansasii [3] = assay: Antimycobacterial activity against Mycobacterium kansasii CNCTC My 235/80 after 7 days by microdilution method; assay type: functional; details: CNCTC My 235/80, 168 h
[4] = Cytotoxicity against human HeLa cells assessed as cell viability at 20 uM after 24 hrs by MTS assay; assay type: cell-based; details: read-out: Activity
HeLa [5] = assay: Cytotoxicity against human HeLa cells assessed as cell viability after 48 hrs by MTS assay; assay type: cell-based
[6] = Cytotoxicity against human HuH7 cells assessed as cell viability after 24 hrs by MTS assay; assay type: cell-based; details: Huh-7, 24 h
Mycobacterium kansasii [7] = assay: Antimycobacterial activity against Mycobacterium kansasii CNCTC My 6509/96 after 21 days by microdilution method; assay type: functional; details: CNCTC My 6509/96, 504 h
[8] = Cytotoxicity against MDCK2-MDR1 cells assessed as cell viability after 24 hrs by MTS assay; assay type: ADME, cell-based; details: Canis lupus familiaris, MDCK-II
[9] = Cytotoxicity against MDCK2-MDR1 cells assessed as cell viability at 20 uM after 48 hrs by MTS assay; assay type: ADME, cell-based, Canis lupus familiaris, MDCK-II; details: dog, read-out: Activity
Mycobacterium kansasii [10] = assay: Antimycobacterial activity against Mycobacterium kansasii CNCTC My 235/80 after 14 days by microdilution method; assay type: functional; details: CNCTC My 235/80, 336 h
[11] = tested on: Mycobacterium tuberculosis; assay: Antimycobacterial activity against Mycobacterium tuberculosis CNCTC My 331/88 after 21 days by microdilution method; assay type: functional; details: CNCTC My 331/88, 504 h
HeLa [12] = assay: Cytotoxicity against human HeLa cells assessed as cell viability after 24 hrs by MTS assay; assay type: cell-based
[13] = Cytotoxicity against human HeLa cells assessed as cell viability at 20 uM after 48 hrs by MTS assay; assay type: cell-based; details: read-out: Activity
Mycobacterium kansasii [14] = assay: Antimycobacterial activity against Mycobacterium kansasii CNCTC My 235/80 after 21 days by microdilution method; assay type: functional; details: CNCTC My 235/80, 504 h
Mycobacterium kansasii [15] = assay: Antimycobacterial activity against Mycobacterium kansasii CNCTC My 6509/96 after 7 days by microdilution method; assay type: functional; details: CNCTC My 6509/96, 168 h
[16] = Cytotoxicity against MDCK2-MDR1 cells assessed as cell viability at 20 uM after 24 hrs by MTS assay; assay type: ADME, cell-based, Canis lupus familiaris, MDCK-II; details: dog, read-out: Activity
Mycobacterium avium [17] = assay: Antimycobacterial activity against Mycobacterium avium CNCTC My 330/88 after 14 days by microdilution method; assay type: functional; details: CNCTC My 330/88, 336 h
[18] = Cytotoxicity against human HuH7 cells assessed as cell viability at 20 uM after 48 hrs by MTS assay; assay type: cell-based, Huh-7; details: read-out: Activity
Mycobacterium kansasii [19] = assay: Antimycobacterial activity against Mycobacterium kansasii CNCTC My 6509/96 after 14 days by microdilution method; assay type: functional; details: CNCTC My 6509/96, 336 h
Mycobacterium avium [20] = assay: Antimycobacterial activity against Mycobacterium avium CNCTC My 330/88 after 21 days by microdilution method; assay type: functional; details: CNCTC My 330/88, 504 h
Salmonella typhimurium [21] = assay: Mutagenic activity in Salmonella typhimurium TA100 assessed as reverse mutation at 30 uM by Ames test; assay type: toxicity, organism-based; details: salmonella enterica subsp. enterica serovar typhimurium
Pichia kudriavzevii = assay: Antifungal activity against Candida krusei E28 after 24 to 48 hrs by broth microdilution method; assay type: functional
Candida tropicalis = assay: Antifungal activity against Candida tropicalis 156 after 24 to 48 hrs by broth microdilution method; assay type: functional
Pseudomonas aeruginosa = assay: Antibacterial activity against Pseudomonas aeruginosa ATCC 9027 after 24 to 48 hrs by broth microdilution method; assay type: functional
Nakaseomyces glabratus = assay: Antifungal activity against Candida glabrata 20/I after 24 to 48 hrs by broth microdilution method; assay type: functional
Staphylococcus aureus [22] = assay: Antibacterial activity against Staphylococcus aureus ATCC 6538 after 24 to 48 hrs by broth microdilution method; assay type: functional
Trichosporon asahii = assay: Antifungal activity against Trichosporon asahii 1188 after 24 to 48 hrs by broth microdilution method; assay type: functional
Staphylococcus aureus [23] = assay: Antibacterial activity against methicillin-resistant Staphylococcus aureus H 5996/08 after 24 to 48 hrs by broth microdilution method; assay type: functional
Enterococcus faecalis = assay: Antibacterial activity against Enterococcus faecalis J 14365/08 after 24 to 48 hrs by broth microdilution method; assay type: functional
Salmonella typhimurium [24] = assay: Mutagenic activity in Salmonella typhimurium TA98 assessed as reverse mutation at 30 uM by Ames test; assay type: toxicity, organism-based; details: salmonella enterica subsp. enterica serovar typhimurium
Candida albicans = assay: Antifungal activity against Candida albicans ATCC 44859 after 24 to 48 hrs by broth microdilution method; assay type: functional
Lichtheimia corymbifera = assay: Antifungal activity against Absidia corymbifera 272 after 24 to 48 hrs by broth microdilution method; assay type: functional
[25] = tested on: Staphylococcus epidermidis; assay: Antibacterial activity against Staphylococcus epidermidis H 6966/08 after 24 to 48 hrs by broth microdilution method; assay type: functional
Escherichia coli = assay: Antibacterial activity against Escherichia coli ATCC 8739 after 24 to 48 hrs by broth microdilution method; assay type: functional
Klebsiella pneumoniae [26] = assay: Antibacterial activity against ESBL producing Klebsiella pneumoniae J 14368/08 after 24 to 48 hrs by broth microdilution method; assay type: functional
Aspergillus fumigatus = assay: Antifungal activity against Aspergillus fumigatus 231 after 24 to 48 hrs by broth microdilution method; assay type: functional
Klebsiella pneumoniae [27] = assay: Antibacterial activity against Klebsiella pneumoniae D 11750/08 after 24 to 48 hrs by broth microdilution method; assay type: functional
[28] = tested on: Trichophyton mentagrophytes; assay: Antifungal activity against Trichophyton mentagrophytes 445 after 72 to 120 hrs by broth microdilution method; assay type: functional

| SMILES | MIC99 [1] | viability at 24 h, 20 µM [2] | MIC99 (Mycobacterium kansasii [3]) | viability at 24 h, 20 µM [4] | IC50 (HeLa [5]) | IC50 [6] | MIC99 (Mycobacterium kansasii [7]) | IC50 [8] | viability at 48 h, 20 µM [9] | MIC99 (Mycobacterium kansasii [10]) | MIC99 [11] | IC50 (HeLa [12]) | viability at 48 h, 20 µM [13] | MIC99 (Mycobacterium kansasii [14]) | MIC99 (Mycobacterium kansasii [15]) | viability at 24 h, 20 µM [16] | MIC99 (Mycobacterium avium [17]) | viability at 48 h, 20 µM [18] | MIC99 (Mycobacterium kansasii [19]) | MIC99 (Mycobacterium avium [20]) | further results |
| --- | --- | --- | --- | --- | --- | --- | --- | --- | --- | --- | --- | --- | --- | --- | --- | --- | --- | --- | --- | --- | --- |
| O=[N+]([O-])c1cc(CSc2nnc(-c3cccc(Cl)c3)s2)cc([N+](=O)[O-])c1 | 0.125 µM (≈ 0.0511 µg/mL) | 90.7% | 0.25 µM (≈ 0.102 µg/mL) | 78.6% | 2.6 µM | > 20 µM | 0.5 µM (≈ 0.204 µg/mL) | > 20 µM | 48.6% | 1 µM (≈ 0.409 µg/mL) | 0.125 µM (≈ 0.0511 µg/mL) | > 20 µM | 16.8% | 1 µM (≈ 0.409 µg/mL) | 0.25 µM (≈ 0.102 µg/mL) | 108% | 8 µM (≈ 3.27 µg/mL) | 32.8% | 0.5 µM (≈ 0.204 µg/mL) | 16 µM (≈ 6.54 µg/mL) | – |
| [N-]=[N+]=[N-].[Na+] [SODIUM AZIDE] | – | – | – | – | – | – | – | – | – | – | – | – | – | – | – | – | – | – | – | – | Activity (Salmonella typhimurium [21]): Toxic |
| COc1cccc(-c2nnc(SCc3cc([N+](=O)[O-])cc([N+](=O)[O-])c3)o2)c1 | 0.125 µM (≈ 0.0485 µg/mL) | 89.6% | 0.125 µM (≈ 0.0485 µg/mL) | 74.2% | 4.1 µM | > 20 µM | 1 µM (≈ 0.388 µg/mL) | > 20 µM | 10.5% | 0.25 µM (≈ 0.0971 µg/mL) | 0.125 µM (≈ 0.0485 µg/mL) | > 20 µM | 16.4% | 0.5 µM (≈ 0.194 µg/mL) | 0.125 µM (≈ 0.0485 µg/mL) | 105% | 16 µM (≈ 6.21 µg/mL) | 47% | 0.5 µM (≈ 0.194 µg/mL) | 16 µM (≈ 6.21 µg/mL) | MIC80 (Pichia kudriavzevii): > 125 µM; MIC80 (Candida tropicalis): > 125 µM; MIC95 (Pseudomonas aeruginosa): > 125 µM; MIC80 (Nakaseomyces glabratus): > 125 µM; MIC95 (Staphylococcus aureus [22]): > 125 µM; MIC80 (Trichosporon asahii): > 125 µM; MIC95 (Staphylococcus aureus [23]): > 125 µM; MIC95 (Enterococcus faecalis): > 125 µM; Activity (Salmonella typhimurium [24]): Non-toxic; MIC80 (Candida albicans): > 125 µM; Activity (Salmonella typhimurium [21]): Non-toxic; MIC50 (Lichtheimia corymbifera): > 125 µM; MIC95 [25]: > 125 µM; MIC95 (Escherichia coli): > 125 µM; MIC95 (Klebsiella pneumoniae [26]): > 125 µM; MIC50 (Aspergillus fumigatus): > 125 µM; MIC95 (Klebsiella pneumoniae [27]): > 125 µM; MIC50 [28]: > 125 µM |
